These compounds were tested against T1, soluble guanylate cyclase (human GUCYA3/GUCYB3) overexpressed in CHO cells (Homo sapiens, UniProt Q02108+Q02153) (assay: CHO cellular assay (cGMP production, HTRF)). Settings: CHO K1 clone 8E10 overexpressing human sGC, Cisbio HTRF, 1 h room temperature, 1 mM IBMX, 20 uM ODQ, minimum quantification limit 0.5 nM.
T1 construct: expressed in transfected cells
T1 sequence (Q02108 1-690 partner): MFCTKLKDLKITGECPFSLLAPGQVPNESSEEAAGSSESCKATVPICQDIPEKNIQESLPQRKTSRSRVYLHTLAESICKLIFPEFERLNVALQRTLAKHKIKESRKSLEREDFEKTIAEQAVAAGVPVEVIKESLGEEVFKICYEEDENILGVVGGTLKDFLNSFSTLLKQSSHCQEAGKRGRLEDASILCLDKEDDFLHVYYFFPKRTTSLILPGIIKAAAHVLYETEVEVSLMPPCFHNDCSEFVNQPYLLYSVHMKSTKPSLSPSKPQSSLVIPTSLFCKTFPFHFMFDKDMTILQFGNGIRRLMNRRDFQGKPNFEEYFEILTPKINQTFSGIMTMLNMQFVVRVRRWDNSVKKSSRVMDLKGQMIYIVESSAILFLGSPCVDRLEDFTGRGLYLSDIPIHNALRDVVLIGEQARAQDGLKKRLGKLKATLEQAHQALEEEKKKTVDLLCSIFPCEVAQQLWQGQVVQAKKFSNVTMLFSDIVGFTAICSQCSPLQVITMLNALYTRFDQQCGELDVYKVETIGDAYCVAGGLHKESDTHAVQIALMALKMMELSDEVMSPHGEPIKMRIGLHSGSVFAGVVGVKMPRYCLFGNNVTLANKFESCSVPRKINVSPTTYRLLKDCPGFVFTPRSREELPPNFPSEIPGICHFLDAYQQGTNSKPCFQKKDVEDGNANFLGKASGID
T1 sequence (Q02153 1-619): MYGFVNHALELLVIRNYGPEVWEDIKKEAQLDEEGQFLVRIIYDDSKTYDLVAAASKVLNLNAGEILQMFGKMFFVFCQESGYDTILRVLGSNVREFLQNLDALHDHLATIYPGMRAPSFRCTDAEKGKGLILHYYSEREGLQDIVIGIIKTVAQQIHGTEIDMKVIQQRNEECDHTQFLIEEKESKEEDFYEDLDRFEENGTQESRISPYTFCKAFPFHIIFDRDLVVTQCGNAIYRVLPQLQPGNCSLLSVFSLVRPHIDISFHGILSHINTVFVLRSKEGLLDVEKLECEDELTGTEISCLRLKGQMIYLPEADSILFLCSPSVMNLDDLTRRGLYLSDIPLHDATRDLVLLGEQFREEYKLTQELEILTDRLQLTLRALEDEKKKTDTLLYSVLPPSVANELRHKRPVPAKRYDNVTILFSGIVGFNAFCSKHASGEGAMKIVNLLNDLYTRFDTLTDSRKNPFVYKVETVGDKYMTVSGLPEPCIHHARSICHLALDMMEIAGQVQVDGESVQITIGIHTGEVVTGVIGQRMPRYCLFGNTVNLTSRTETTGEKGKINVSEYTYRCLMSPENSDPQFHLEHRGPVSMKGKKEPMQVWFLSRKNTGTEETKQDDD
Type: cell-based
Source text: Chinese hamster ovary (CHO) cells overexpressing soluble guanylate cyclase were generated to test the effect of sGC activators in a cellular context. Human cDNAs for GUCYA3 (RefSeq: NM_000856.3) and GUCYB3 (RefSeq: NM_000857.1) were amplified by PCR from a HUVEC (Human Umbilical Vein Endothelial Cells) cDNA library and cloned into mammalian expression vectors. CHO K1 cells (ATCC CCL-61) were transfected using Lipofectamine 2000 following manufacturer's instructions and stably expressing clones were identified by antibiotic selection. CHO GUCY clone 8E10 was used for subsequent experiments.
Cells were seeded at a density of 3000 cells/well in white 384-well proxyplates (Perkin Elmer) and incubated overnight, then the medium was removed and cells were washed with assay buffer (HBSS, 0.1% BSA, 1 mM IBMX, 20 uM ODQ). sGC activators were serially diluted in DMSO, then diluted in assay buffer prior to adding to cells (10 ul/well, final DMSO concentration 0.5%). Cells were incubated with compounds for 1 h room temperature, then assayed for cGMP production using Cisbio cGMP HTRF kit (62GM2PEC) according to manufacturer's instructions.
The EC50s are calculated based on the amount of cGMP interpolated from the standard curve, using a 4-parameter sigmoidal dose-response.

Structure (SMILES)	EC50 [nM]
CCc1c(C)sc(-c2cccc(-n3ncc(C(=O)O)c3C(F)(F)F)n2)c1COc1ccc(C2CCN(CC(F)(F)F)CC2)cc1C [Example 6-18, 1-(6-(4-Ethyl-5-methyl-3-((2-methyl-4-(1-(2,2,2-trifluoroethyl)piperidin-4-yl)phenoxy)methyl)thiophen-2-yl)pyridin-2-yl)-5-(trifluoromethyl)-1H-pyrazole-4-carboxylic acid]	2.4
O=C(O)c1cnn(-c2cccc(-c3sccc3COc3ccc(C4CCN(C(=O)C5CC5)CC4)cn3)n2)c1C(F)(F)F [Example 6-19, 1-(6-(3-(((5-(1-(Cyclopropanecarbonyl)piperidin-4-yl)pyridin-2-yl)oxy)methyl)thiophen-2-yl)pyridin-2-yl)-5-(trifluoromethyl)-1H-pyrazole-4-carboxylic acid]	2
CCC(=O)N1CCC(c2ccc(OCc3ccsc3-c3cccc(-n4ncc(C(=O)O)c4C(F)(F)F)n3)c(Cl)c2)CC1 [Example 7, 1-(6-(3-((2-Chloro-4-(1-propionylpiperidin-4-yl)phenoxy)methyl)thiophen-2-yl)pyridin-2-yl)-5-(trifluoromethyl)-1H-pyrazole-4-carboxylic acid]	≤ 0.5
O=C(O)c1cnn(-c2cccc(-c3sccc3COc3ccc(C4CCN(C(=O)C5CC5)CC4)cc3Cl)n2)c1C(F)(F)F [Example 8, 1-(6-(3-((2-Chloro-4-(1-(cyclopropanecarbonyl)piperidin-4-yl)phenoxy)methyl)thiophen-2-yl)pyridin-2-yl)-5-(trifluoromethyl)-1H-pyrazole-4-carboxylic acid]	≤ 0.5
Cc1cc(C2CCN(C(=O)C3CC3)CC2)ccc1OCc1ccsc1-c1cccc(-n2ncc(C(=O)O)c2C)n1 [Example 9, 1-(6-(3-((4-(1-(Cyclopropanecarbonyl)piperidin-4-yl)-2-methylphenoxy)methyl)thiophen-2-yl)pyridin-2-yl)-5-methyl-1H-pyrazole-4-carboxylic acid]	≤ 0.5
CCc1cc(OCc2ccsc2-c2cccc(-n3ncc(C(=O)O)c3C)n2)ccc1C1CCN(C(=O)C2CC2)CC1 [Example 10-1, 1-(6-(3-((4-(1-(Cyclopropanecarbonyl)piperidin-4-yl)-3-ethylphenoxy)methyl)thiophen-2-yl)pyridin-2-yl)-5-methyl-1H-pyrazole-4-carboxylic acid]	≤ 0.5
CCc1cc(OCc2ccsc2-c2cccc(-n3ncc(C(=O)O)c3CC)n2)ccc1C1CCN(C(=O)C2CC2)CC1 [Example 10-2, 1-(6-(3-((4-(1-(Cyclopropanecarbonyl)piperidin-4-yl)-3-ethylphenoxy)methyl)thiophen-2-yl)pyridin-2-yl)-5-ethyl-1H-pyrazole-4-carboxylic acid]	≤ 0.5
Cc1cc(COc2ccc(C3CCN(C(=O)C4CC4)CC3)cc2C)c(-c2cccc(-n3ncc(C(=O)O)c3C)n2)s1 [Example 10-3, 1-(6-(3-((4-(1-(Cyclopropanecarbonyl)piperidin-4-yl)-2-methylphenoxy)methyl)-5-methylthiophen-2-yl)pyridin-2-yl)-5-methyl-1H-pyrazole-4-carboxylic acid]	≤ 0.5
CCc1cc(OCc2cc(C)sc2-c2cccc(-n3ncc(C(=O)O)c3C)n2)ccc1C1CCN(C(=O)C2CC2)CC1 [Example 10-4, 1-(6-(3-((4-(1-(Cyclopropanecarbonyl)piperidin-4-yl)-3-ethylphenoxy)methyl)-5-methylthiophen-2-yl)pyridin-2-yl)-5-methyl-1H-pyrazole-4-carboxylic acid]	≤ 0.5
CCc1cc(OCc2c(C)csc2-c2cccc(-n3ncc(C(=O)O)c3C(F)(F)F)n2)ccc1C1CCN(C(=O)C2CC2)CC1 [Example 10-5, 1-(6-(3-((4-(1-(Cyclopropanecarbonyl)piperidin-4-yl)-3-ethylphenoxy)methyl)-4-methylthiophen-2-yl)pyridin-2-yl)-5-(trifluoromethyl)-1H-pyrazole-4-carboxylic acid]	≤ 0.5
CCc1c(C(=O)O)cnn1-c1cccc(-c2sc(C)c(C)c2COc2ccc(C3CCN(C(=O)C4CC4)CC3)cc2C)n1 [Example 10-6, 1-(6-(3-((4-(1-(Cyclopropanecarbonyl)piperidin-4-yl)-2-methylphenoxy)methyl)-4,5-dimethylthiophen-2-yl)pyridin-2-yl)-5-ethyl-1H-pyrazole-4-carboxylic acid]	≤ 0.5
Cc1c(OCc2ccsc2-c2cccc(-n3ncc(C(=O)O)c3C(F)(F)F)n2)ccc2c1CCN(Cc1ccccn1)C2 [Example 10-7, 1-(6-(3-(((5-Methyl-2-(pyridin-2-ylmethyl)-1,2,3,4-tetrahydroisoquinolin-6-yl)oxy)methyl)thiophen-2-yl)pyridin-2-yl)-5-(trifluoromethyl)-1H-pyrazole-4-carboxylic acid]	37
Cc1cc(C2CCN(C(=O)C3CC3)CC2)ccc1OC(C)c1ccsc1-c1cccc(-n2ncc(C(=O)O)c2C(F)(F)F)c1 (stereo not drawn) [Example 10-8, 1-(3-(3-(1-(4-(1-(Cyclopropanecarbonyl)piperidin-4-yl)-2-methylphenoxy)ethyl)thiophen-2-yl)phenyl)-5-(trifluoromethyl)-1H-pyrazole-4-carboxylic acid]	15
Cc1cc(C2CCN(CC(F)(F)F)CC2)ccc1OCc1c(C)csc1-c1cccc(-n2ncc(C(=O)O)c2C(F)(F)F)n1 [Example 10-9, 1-(6-(4-methyl-3-((2-methyl-4-(1-(2,2,2-trifluoroethyl)piperidin-4-yl)phenoxy)methyl)thiophen-2-yl)pyridin-2-yl)-5-(trifluoromethyl)-1H-pyrazole-4-carboxylic acid]	57
Cc1cc(C2CCN(C(=O)CC3CC3)CC2)ccc1OCc1ccsc1-c1cccc(-n2ncc(C(=O)O)c2C(F)(F)F)n1 [Example 11, 1-(6-(3-((4-(1-(2-Cyclopropylacetyl)piperidin-4-yl)-2-methylphenoxy)methyl)thiophen-2-yl)pyridin-2-yl)-5-(trifluoromethyl)-1H-pyrazole-4-carboxylic acid]	2
Cc1cc(C2CCN(C(=O)C3CCC3)CC2)ccc1OCc1ccsc1-c1cccc(-n2ncc(C(=O)O)c2C(F)(F)F)n1 [Example 12-1, 1-(6-(3-((4-(1-(Cyclobutanecarbonyl)piperidin-4-yl)-2-methylphenoxy)methyl)thiophen-2-yl)pyridin-2-yl)-5-(trifluoromethyl)-1H-pyrazole-4-carboxylic acid]	≤ 0.5
Cc1cc(C2CCN(C(=O)C3CC3)CC2)ccc1OCc1ccsc1-c1cccc(-n2ncc(C(=O)O)c2C(F)(F)F)n1 [Example 12-2, 1-(6-(3-((4-(1-(Cyclopropanecarbonyl)piperidin-4-yl)-2-methylphenoxy)methyl)thiophen-2-yl)pyridin-2-yl)-5-(trifluoromethyl)-1H-pyrazole-4-carboxylic acid]	4.5
CCc1cc(OCc2cc(C)sc2-c2cccc(-n3ncc(C(=O)O)c3C(F)(F)F)n2)ccc1C1CCN(C(=O)CC2CC2)CC1 [Example 12-4, 1-(6-(3-((4-(1-(2-Cyclopropylacetyl)piperidin-4-yl)-3-ethylphenoxy)methyl)-5-methylthiophen-2-yl)pyridin-2-yl)-5-(trifluoromethyl)-1H-pyrazole-4-carboxylic acid]	≤ 0.5
